Results reported in PMC4721142, “Randomized controlled studies on the efficacy of antiarthritic agents in inhibiting cartilage degeneration and pain associated with progression of osteoarthritis in the rat” (Arthritis Research & Therapy, 2016).
Where “and” joins values, the source holds several entries; their conditions need not be identical. Identical values can stand only once.

Tests used:
SW982 = assay: Synovial toxicity (CellTiter-Glo), with or without TNF-α
[1] = Comparison of in vitro screens: overlapping effective and nontoxic range;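 further: compares non-toxic ranges in synovial cells and chondrocytes with effective ranges against NFkB, MMP-13 and osteoclasts, giving their overlap as the predicted efficacy range in uM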
MMP-13 = MMP-13 ELISA on supernatants of TNF-α-treated chondrogenic pellets; type: cell-based, human
RAW 264.7 cells = assay: RANKL-mediated osteoclastogenesis / matrix resorption (Osteologic) assay; type: cell-based, murine
Method: RAW 264.7 cells (American Type Culture Collection [ATCC], Manassas, VA, USA), a murine monocytic cell line that differentiates in the presence of RANKL, was used for measurements of osteoclastogenesis and osteoclast activity. Cells were amplified on nonadherent culture substratum in high-glucose Dulbecco’s modified Eagle’s medium (DMEM) containing 10 % fetal bovine serum (FBS) and penicillin-streptomycin in a 37 °C, 5 % CO2, humidified incubator and were passaged by manual dissociation. […] Plates were subsequently rinsed, bleached, dried, and analyzed for matrix degradation using a Nikon COOLSCOPE (Nikon Instruments, Melville, NY, USA). Matrix resorption was quantified using EclipseNet (Nikon Instruments)/Visiopharm (Visiopharm, Hørsholm, Denmark) software (see Additional file 1).
In Vitro Osteoclastogenesis
Osteoclastogenic activity was measured using BD osteologic plates and quantitation of the degree of bone matrix digestion on the plate surface. Images from the BD Osteologic assay used to […]
left pane depicts an example of a control well after removal of cells from matrix. Pseudocoloring of matrix (blue) and pits (green) is shown in the far right pane. A transparent overlay of the two images is shown in the center.
Figure 5 - Measurement of drug effects on osteoclastogenesis and osteoclast activity.
Comparisons were made between RANKL treated control wells and wells treated with both RANKL and […]
Agents were initially tested either during differentiation or post differentiation in the bone assay […]
(e.g., Figure 2, Sulfazalazine). […]
indicated (*/**: p < 0.05/0.01, unpaired t-test versus RANKL control). […]

MIA rat model of OA [2] = assay: MIA trial 3 histopathology (same doses as dRS test); type: in vivo; design: key to Cartilage matrix damage score: 5-point cartilage matrix score; key to Mean of all cartilage loss: approximate % loss, mean of four articular surfaces; Subchondral bone sclerosis: scale not given here
Source text: For MIA trial 3, joints were fixed and toluidine blue–stained sections of the rat knees were comprehensively analyzed from test and control subjects as detailed in Additional file 1. Briefly, a 5-point cartilage matrix score was derived based upon (1) approximate percentage of total loss of articular chondrocytes for each of four articular surfaces, (2) estimated proteoglycan loss (via Safranin O staining), and (3) loss of interstitial matrix. Chondrocyte necrosis and proteolytic degeneration of the femurs were scored on a 5-point scale as in trial 1. A femoral cartilage degeneration score and a three-zone sum of the tibial cartilage degeneration scores (mean of three levels) were also summed to create a total cartilage degeneration score. The mean osteophyte score for each joint was added to this value to create a total joint score with matrix. Other parameters assessed included synovial membrane inflammation and proliferation. Representative images from each group were also collected (see, e.g., Fig. 4 and Additional file 1: Fig. S55, Trial 3). […]
Hawes, APS, Pathologist). Treatments were masked during the assessment. Chondrocyte necrosis and proteolytic degeneration of the femurs were scored on a 5 point scale with 0 = None; 1 = <10%; […]
For the histopathology of the MIA model in Trial 3, completed by Bolder BioPATH (and Dr.
Bendele), a tolouidine blue stained slide containing both halves of the joint was comprehensively analyzed from test and control subjects. Approximate % of total loss of articular chondrocytes, loss of proteoglycan and loss of collagenous matrix were determined for each articular surface (medial tibial plateau (MTP), lateral tibial plateau (LTP), medial femoral condyle (MFC), and lateral femoral condyle (LFC). Chondrocyte loss was quantified by estimating the area of cartilage in which there were no apparently viable chondrocytes and proteoglycan loss was quantified by estimating differences in intensity of toluidine blue matrix staining. Loss of interstitial matrix was an indication of disruption and diminished type II collagen. Based on the mean % loss for the four surfaces in these parameters, a five point matrix score was utilized with the subchondral bone resorption, subchondral bone sclerosis and osteophyte scores to achieve a total joint score. […]
[…] steps, stained with toluidine blue (with a right and left halve per section), and analyzed for cartilage degeneration, proteoglycan loss, collagen damage, and osteophyte formation. Results were averaged across the 3 sections for an overall semi-quantitative score. Regional differences across the tibial plateau were taken into consideration by dividing each section into 3 zones delineated using an ocular micrometer (outside, middle, and inside). Scores were based on the percentage of area affected within the zone.
Cartilage degeneration in the tibia was scored on a five point scale for each zone, collagen damage across the medial tibial plateau was measured by total width for each grade damage. Cartilage degeneration in the tibia was scored none to severe (numerical values 0-5) for each zone (area defined by micrometer) using the following criteria: […]

MIA rat model of OA [3] = assay: MIA trial 3 digital Randall-Selitto test (weekly i.a. clonidine 4.5 μg, tacrolimus 30 ng, fluocinolone 15 ng, meloxicam 100 μg, tranilast 500 ng, TH 150 μg; clonidine 100 μg/kg s.c.); type: in vivo
Method: The digital Randall-Selitto (dRS) test is said to be a reliable and repeatable measure of neuropathic, bone, and inflammatory pain behavior in several different models, including those of arthritic or joint pain [29, 31, 32]. Baseline and posttreatment values were evaluated using a dRS test device (IITC Life Science, Woodland Hills, CA, USA). Animals were allowed to acclimate to the testing room before all experimentation and for a minimum of 30 minutes before testing. To ensure that their hind limbs were accessible, the animals were gently suspended in a restraint sling. The joint compression threshold was measured once at each time point for the ipsilateral and contralateral knee joints. Pressure was applied gradually over approximately 10 seconds to the medial and lateral aspects of the knee joint. Measurements were taken from the first observed behavior of vocalization, struggle, or withdrawal. A cutoff value of 600 g was used to prevent injury to the animal.
Following isoflurane anesthesia, 50 μl (2 mg) of MIA was injected into the synovial space of the left knee. Animals were randomly assigned to groups, and pain behavior was assessed 7, 14, 21, and 28 days following MIA injection and intervention using WB with the Stoelting incapacitance meter (trial 1) or the dRS test (trials 2 and 3). […] Animals received MIA treatment and then saline control or therapeutic. […] Histopathology was performed at each time point and at study termination. All studies were conducted in accordance with the International Association for the Study of Pain Guidelines and were approved by the Algos Therapeutics, Inc. Institutional Animal Care and Use Committee (IACUC) before initiation. Those running the studies were blind to the treatments. See Additional file 1 for further details. […]
struggle or withdrawal. A cut-off value of 600 g was used to prevent injury to the animal. The mean and standard error of the mean (SEM) were determined for each treatment group.
Statistical significance was assigned as p ≤ 0.05. The stability of the vehicle group over time was assessed on each testing day (Days 7, 14, 21, and 28) using repeated measures one-way analysis of variance (ANOVA) comparing joint compression thresholds at each experimental time point on a given testing day versus that testing day’s pre-treatment value. Osteoarthritis-related pain in the vehicle group was estimated at each time point on each testing day by comparing ipsilateral (injured) to contralateral (normal) joint compression thresholds using paired t-tests. The progression of osteoarthritis-related pain in the vehicle group was estimated by comparing pre-treatment joint compression thresholds on each testing day versus pre-MIA measurements using repeated measures one-way ANOVA. […]
thresholds at each experimental time point on a given testing day with vehicle treated animals using an unpaired t-test. The acute effect of Tacrolimus was analyzed by comparing joint compression thresholds at each time point on a given testing day with the corresponding pre-treatment baseline values using repeated measures one-way ANOVA and compared to vehicle treated animals using […]
values using repeated measures one-way ANOVA. Chronic effects were analyzed by comparing pre-treatment joint compression thresholds on each testing day versus the appropriate Day 7 pre-treatment values using repeated measures one-way ANOVA and by comparing pre-treatment joint compression thresholds with vehicle treated animals on each testing day using an unpaired t-test or one-way ANOVA. Day 7 pre-treatment joint compression thresholds between all groups were assessed using one-way ANOVA. The Dunnett’s multiple comparison post hoc test was used when […]
dosing were housed three per cage. Animals had free access to food and water and were maintained […]
The animal colony was maintained at approximately 21 °C. All experiments were conducted in accordance with the International Association for the Study of Pain Guidelines.

[4] = test system: Normal human articular chondrocytes; assay: Cytotoxicity to chondrogenic pellets (CellTiter-Blue)

SMILES: Cc1cnc(NC(=O)C2=C(O)c3ccccc3S(=O)(=O)N2C)s1 [Meloxicam]
- Non-toxic range (Synovial) (SW982): 0.25 to 16 µM
- Non-toxic & predicted range of efficacy [1]: 16 to 32 µM
- Overlapping effective and nontoxic range ([1]; inhibits with minimal or no toxicity to synovium or cartilage, overlapping range if effective in more than one assay): 16 to 32 µM
- Effective range against MMP-13 (MMP-13): Not effective
- Effective range against Osteoclasts (RAW 264.7 cells): Not effective
- Bone resorption percent, LFC (MIA rat model of OA [2]; group mean, i.a. weekly): 0%
- Bone resorption percent, LTP (MIA rat model of OA [2]; group mean, i.a. weekly): 0%
- Bone resorption percent, MFC (MIA rat model of OA [2]; group mean, i.a. weekly): 15%
- Bone resorption percent, MTP (MIA rat model of OA [2]; group mean, i.a. weekly): 15%
- Bone resorption percent, mean (MIA rat model of OA [2]; group mean, i.a. weekly): 8%
- Bone resorption score (MIA rat model of OA [2]; group mean, i.a. weekly): 1.0
- Cartilage matrix damage score (MIA rat model of OA [2]; group mean, i.a. weekly): 1.0 and 1.0 ± 0.0
- Mean of all cartilage loss (MIA rat model of OA [2]; group mean, i.a. weekly): 9.7
- Osteophyte measure (MIA rat model of OA [2]; group mean, i.a. weekly): 146.7 µm
- Osteophyte score (MIA rat model of OA [2]; group mean, i.a. weekly): 0.7
- Subchondral bone sclerosis (MIA rat model of OA [2]; group mean, i.a. weekly): 0.3
- Total joint score w/o matrix (MIA rat model of OA [2]; group mean, i.a. weekly): 2.0
- Total joint score with matrix (MIA rat model of OA [2]; group mean, i.a. weekly): 3.0 and 3.0 ± 1.2
- Decrease of total joint score vs vehicle controls (MIA rat model of OA [2]; meloxicam 100 μg i.a.): 47%
- dRS, hours after dosing with significant difference (MIA rat model of OA [3]; day 7): 1 h
- dRS, hours after dosing with significant difference (MIA rat model of OA [3]; day 14): 3 h
- Non-toxic range (Chondrocyte) [4]: 0.125 to 8 M
